This is an account of results in patent US20230339915A1 (Vertex Pharmaceuticals Incorporated, priority 2020, published 2023).

In general, IC50 refers to the point on the concentration scale where inhibition reaches its midpoint. Broadly, the EC50 is the concentration at which the effect is half-maximal.

Assay [1] concerns the target purified Z-AAT protein from human plasma (Homo sapiens (Human), UniProt P01009, E366K). Kind of assay: Biochemical Assay (Z-AAT Elastase Activity Assay). Particulars: purified Z-AAT pre-incubated with compound 1 hour, then human neutrophil elastase and fluorescent substrate. The gist of the method: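 Purified plasma Z-AAT (20 nM) preincubated with compounds 1 h at room temperature, then 3 nM human neutrophil elastase added in PBS + 0.01% BRIJ35 for 30 min to form suicide complex. Residual elastase activity read immediately by fluorescence after adding 300 μM MeOSuc-AAPV-AMC substrate solution.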

Assay [2] addresses NL20 human bronchial epithelial cells expressing human Z-AAT (Homo sapiens (Human), UniProt P01009, E366K). Kind of assay: AAT Function Assay (MSD Assay NL20-SI Cell Line). The settings on record: functionally active AAT (AAT-hNE complex, MSD) in supernatant of NL20 cells expressing human Z-AAT; read-out: NL20 Functional EC50. In kind it is cell-based. In outline:
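NL20 bronchial epithelial cells expressing Z-AAT, induced with 0.1 μM doxycycline, were treated with compound overnight. Functional AAT in supernatant was measured by complex formation with excess human neutrophil elastase, captured on anti-AAT plates, detected with Sulfo-tagged anti-elastase on MSD, and quantified against M-AAT standards (0.156–320 ng/mL).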

Sequence of purified Z-AAT protein from human plasma (P01009 25-418 E366K limits assumed): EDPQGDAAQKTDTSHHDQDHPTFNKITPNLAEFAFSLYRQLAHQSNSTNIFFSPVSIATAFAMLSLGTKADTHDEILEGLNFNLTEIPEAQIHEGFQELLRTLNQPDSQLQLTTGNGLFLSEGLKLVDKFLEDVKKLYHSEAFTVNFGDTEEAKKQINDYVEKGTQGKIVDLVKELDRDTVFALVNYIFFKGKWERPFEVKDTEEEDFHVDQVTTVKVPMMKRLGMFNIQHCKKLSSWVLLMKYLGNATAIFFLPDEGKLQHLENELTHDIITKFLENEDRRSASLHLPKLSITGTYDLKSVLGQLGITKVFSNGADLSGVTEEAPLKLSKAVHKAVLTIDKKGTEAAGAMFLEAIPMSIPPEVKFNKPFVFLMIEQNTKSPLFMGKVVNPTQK
Sequence of NL20 human bronchial epithelial cells expressing human Z-AAT (P01009 25-418 E366K limits assumed): as above

As to `Cc1cc(-n2c(C(C)C)c(C3CCOC(C(=O)O)C3)c3cc(O)ccc32)ccc1F` (stereo not drawn) [Compound 65], the IC50 in assay [1] was above 30 µM. Also, the concentration giving a half-maximal response (EC50) in assay [2] was above 2 µM.
The matching figures for `CO[C@]1(C(=O)O)C[C@H](c2c(C(C)C)n(-c3ccc(F)c(C)c3)c3ccc(O)cc32)C1` [Compound 66]: above 30 µM and 0.5 to 2 µM.
For `CO[C@]1(C(=O)O)C[C@@H](c2c(C(C)C)n(-c3ccc(F)c(C)c3)c3ccc(O)cc32)C1` [Compound 67] the same measures were above 30 µM and above 2 µM.
For `Cc1cc(-n2c(C(C)C)c([C@H]3C[C@H](C(=O)O)C3)c3cc(O)c(F)cc32)ccc1F` [Compound 68] the same measures were above 5 µM and 0.5 to 2 µM.
With `Cc1cc(-n2c(C(C)C)c([C@H]3C[C@@H](C(=O)O)C3)c3cc(O)c(F)cc32)ccc1F` [Compound 69], the IC50 in assay [1] was above 5 µM. The half-maximal effective concentration (EC50) in assay [2] was above 2 µM.
The matching figures for `CC(C)c1c(CCC(C)(C)C(=O)O)c2cc(O)ccc2n1-c1ccc(F)cc1` [Compound 70]: above 30 µM and 0.5 to 2 µM.
The matching figures for `CC(C)c1c(CC2(C(=O)O)CC2)c2cc(O)ccc2n1-c1ccc(F)cc1` [Compound 71]: above 5 µM and 0.5 to 2 µM.
The matching figures for `COCC(C)(C)c1c(C2CC(C(=O)O)C2)c2cc(O)ccc2n1-c1ccc(F)c(C)c1` (stereo not drawn) [Compound 72]: above 30 µM and above 2 µM.
Turning to `COCC(C)(C)c1c([C@H]2C[C@H](C(=O)O)C2)c2cc(O)ccc2n1-c1ccc(F)c(C)c1` [Compound 73], the concentration for half-maximal inhibition (IC50) in assay [1] was above 30 µM. Besides, in assay [2], the concentration for a half-maximal effect (EC50) was above 2 µM.
The matching figures for `CC(C)c1c([C@H]2C[C@](C)(C(=O)O)C2)c2cc(O)ccc2n1-c1ccc(F)c(Cl)c1` [Compound 75]: above 5 µM and 0.5 to 2 µM.
The matching figures for `CC(C)c1c([C@H]2C[C@@](C)(C(=O)O)C2)c2cc(O)ccc2n1-c1ccc(F)c(Cl)c1` [Compound 76]: above 30 µM and above 2 µM.
On to `CC(C)c1c([C@H]2C[C@H](C(=O)O)C2)c2cc(O)ccc2n1-c1ccc(F)c(Cl)c1` [Compound 77], for which the IC50 in assay [1] was above 5 µM. Moreover, the half-maximal effective concentration (EC50) in assay [2] was 0.5 to 2 µM.
For `CC(C)c1c([C@H]2C[C@@H](C(=O)O)C2)c2cc(O)ccc2n1-c1ccc(F)c(Cl)c1` [Compound 78] the same measures were above 5 µM and above 2 µM.
Take `CC(C)c1c(C2CC3(CC(C(=O)O)C3)C2)c2cc(O)ccc2n1-c1ccc(F)cc1` (stereo not drawn) [Compound 80]: the IC50 in assay [1] is below 2 µM. For the same molecule, the EC50 in assay [2] was 0.5 to 2 µM.
`COCC(C)(C)c1c(CC2(C(=O)O)CC2)c2cc(O)ccc2n1-c1ccc(F)c(C)c1` [Compound 81]: in assay [1], the IC50 was above 30 µM. Moreover, the EC50 in assay [2] lay within 0.5 to 2 µM.
The matching figures for `Cc1cc(-n2c([C@@H]3CCOC3)c([C@H]3C[C@H](C(=O)O)C3)c3cc(O)ccc32)ccc1F` [Compound 84]: above 30 µM and above 2 µM.
For `Cc1cc(-n2c([C@@H]3CCOC3)c([C@H]3C[C@@H](C(=O)O)C3)c3cc(O)ccc32)ccc1F` [Compound 85] the same measures were above 30 µM and above 2 µM.
The matching figures for `Cc1cc(-n2c([C@H]3CCOC3)c([C@H]3C[C@H](C(=O)O)C3)c3cc(O)ccc32)ccc1F` [Compound 86]: above 30 µM and above 2 µM.
Take `Cc1cc(-n2c([C@H]3CCOC3)c([C@H]3C[C@@H](C(=O)O)C3)c3cc(O)ccc32)ccc1F` [Compound 87]: the half-inhibitory concentration (IC50) in assay [1] is above 30 µM. Further, the 50% effective concentration (EC50) in assay [2] is above 2 µM.
Turning to `Cc1cc(-n2c(C(C)C)c(C3COC(C(=O)O)C3)c3cc(O)ccc32)ccc1F` (stereo not drawn) [Compound 88], in assay [1], the IC50 was above 30 µM. In addition, in assay [2], the EC50 is above 2 µM.
The matching figures for `Cc1cc(-n2c(C(C)C)c([C@H]3C[C@H](C(=O)O)C3)c3c(F)c(O)ccc32)ccc1F` [Compound 89]: 2 to 5 µM and 0.5 to 2 µM.
